Drawing on paper PMC9730589, “Characterization of a novel AA3_1 xylooligosaccharide dehydrogenase from Thermothelomyces myriococcoides CBS 398.93” (Biotechnology for Biofuels and Bioproducts, 2022), this text covers Km for six compounds.

The test system of the assay is T1, TmXdhA.
T1 construct: native full gene from cDNA (578 residues, GMC dehydrogenase domain only, no cytochrome or CBM1); ORF start MQTASKL by primer; SEC-purified, contaminated with an A. niger hydrolase (A0A370CB09)
The experiment in a line: spectrophotometric reduction of […],4-benzoquinone at […] nm, Michaelis-Menten fit. Type of assay: biochemical, Thermothelomyces myriococcoides. The note with it: 1 mM 1,4-benzoquinone, 50 mM ammonium acetate pH 5.5, 30 °C.
The term Km denotes the substrate concentration at which the rate is half of its maximum. Consider `OC[C@H]1O[C@@H](O[C@H]2[C@H](O)[C@@H](O)[C@H](O[C@H]3[C@H](O)[C@@H](O)[C@H](O[C@H]4[C@H](O)[C@@H](O)C(O)O[C@@H]4CO)O[C@@H]3CO)O[C@@H]2CO)[C@H](O)[C@@H](O)[C@@H]1O` (stereo partly drawn) [C4, Cellotetraose], for which the Km came to 530 ± 40 µM.

As to `OC1OC[C@@H](O[C@@H]2OC[C@@H](O)[C@H](O)[C@H]2O)[C@H](O)[C@H]1O` (stereo partly drawn) [X2, Xylobiose], the Km turned out to be 160 ± 10 µM.

`OC1OC[C@@H](O[C@@H]2OC[C@@H](O[C@@H]3OC[C@@H](O)[C@H](O)[C@H]3O)[C@H](O)[C@H]2O)[C@H](O)[C@H]1O` (stereo partly drawn) [X3, Xylotriose]: the Michaelis constant (Km) was found to be 110 ± 10 µM.

`OC[C@H]1O[C@@H](O[C@H]2[C@H](O)[C@@H](O)[C@H](O[C@H]3[C@H](O)[C@@H](O)C(O)O[C@@H]3CO)O[C@@H]2CO)[C@H](O)[C@@H](O)[C@@H]1O` (stereo partly drawn) [C3, Cellotriose]: the Km came to 430 ± 40 µM.

Turning to `OC[C@H]1O[C@@H](O[C@H]2[C@H](O)[C@@H](O)C(O)O[C@@H]2CO)[C@H](O)[C@@H](O)[C@@H]1O` (stereo partly drawn) [C2, Cellobiose], the Km is 360 ± 40 µM.

For the compound `OC1OC[C@@H](O[C@@H]2OC[C@@H](O[C@@H]3OC[C@@H](O[C@@H]4OC[C@@H](O)[C@H](O)[C@H]4O)[C@H](O)[C@H]3O)[C@H](O)[C@H]2O)[C@H](O)[C@H]1O` (stereo partly drawn) [X4, Xylotetraose], the Km turned out to be 130 ± 10 µM.
